Ends that are not written are not given here. FAM = 5(6)-carboxyfluorescein; Ahx = NCCCCCC(=O)O
Experiments:
[1] = test system: MEMs in WT-GBM tumors; assay: Free peptide homing and immunofluorescence in the orthotopic WT-GBM glioblastoma model; details: 30 nmoles i.v., 2 h
Method: (§1) Thirty nmoles of FAM-UNO or FAM-control peptide were injected intravenously into mice and allowed to circulate for 2 h. Mice were then sacrificed and tumor and tissues were analyzed by immunofluorescence using rabbit anti-FAM (green) and rat anti-CD206 (red) antibodies, and counterstained with DAPI. […] The metastases were induced by i.v. inoculation of B16F10 melanoma cells. […] Blue: DAPI. Representative fields from multiple sections (n≥3) prepared from at least 3 tumors are shown. Scale bar: 50 μm. Images shown are representative fields from multiple sections (≥3) prepared from at least 3 tumors (n≥3 mice). The graphs show mean+SEM of FAM signal quantified as described in Materials and Methods.
(§2) Tumor models were induced according to protocols approved by the Estonian Ministry of Agriculture, Committee of Animal Experimentation (permit #48). For the 4T1 breast model, 8-week old female Balb/c mice were injected in the mammary fat pad with 10^6 cells dispersed in 50 μL of PBS. For homing studies, mice were used 10 days later, when the tumor had reached ˜150 mm^3. For MCF-7 breast model, 8-week old female nude mice were implanted with an estrogen pellet, and 1 week later inoculated with 5×10^6 MCF-7 cells in 100 μL of cold Matrigel (BD Biosciences, CA, USA). Mice were used for homing studies three weeks later (tumor volume˜150 mm^3). For the metastatic gastric carcinoma, 10^6 MKN45-P cells in PBS were injected intraperitoneally in 8-week old female nude mice. Mice were used for homing studies two weeks later. For the metastatic melanoma model, 2×10^5 B16F10 cells were injected intravenously in 100 μL of PBS in C57 BL6 mice. The mice were used for homing studies 10 days after. For the angiogenic glioblastoma model, WT-GBM 24, 7×10^5 cells were stereotactically injected in the right striatum of Fox/Nu mice 2 mm lateral and posterior of bregma of 2.5 mm deep. The mice were used for homing studies 6-7 days after the injection.
For free peptide homing studies, mice were injected intravenously with 30 nmoles of FAM-peptides in 100 μL of PBS. For nanoparticle homing studies-FAM-UNO—NP-PTX-, mice were injected intravenously in mice bearing MCF-7 breast tumors with 1 mg of Polymer in 100 μL pf PBS and allowed to circulate for 6 h. For tissue collection, the mice were anesthetized and the tissues collected and immediately placed in 4% cold PFA and left overnight at 4-C. Tissues were washed with PBS for 2 h at room temperature and cryoprotected with sucrose 15% at 4-C overnight and then in sucrose 30% at 4·C overnight. […] FAM was detected using Rabbit anti-FITC (Invitrogen, CA, USA. Catalog # A-889) at a dilution of 1/100 and using Alexa Fluor-546 anti-rabbit antibody (Invitrogen, Ca, USA. Catalog # A-11035) at a dilution of 1/200.

[2] = test system: MEMs in MKN45-P tumors; details: 30 nmoles i.v., 2 h
Method: as §1
as §2, with “For the angiogenic glioblastoma model, WT-GBM 24, 7×10^5 cells were stereotactically injected in the right striatum of Fox/Nu mice 2 mm lateral and posterior of bregma of 2.5 mm deep. The mice were used for homing studies 6-7 days after the injection.” left out
For free peptide homing studies, mice were injected intravenously with 30 nmoles of FAM-peptides in 100 μL of PBS. […] FAM was detected using Rabbit anti-FITC (Invitrogen, CA, USA. Catalog # A-889) at a dilution of 1/100 and using Alexa Fluor-546 anti-rabbit antibody (Invitrogen, Ca, USA. Catalog # A-11035) at a dilution of 1/200.

[3] = test system: intestinal tissue (CD209) and lymph nodes of healthy mice; assay: Free peptide homing in healthy Balb/C mice; assay type: in vivo, mouse; details: 30 nmoles i.v., 2 h
Method: A, Thirty nmoles of FAM-UNO were injected intravenously in healthy Balb/C mice. Peptide was allowed to circulate for 2 hours. Mice were then sacrificed and intestinal tissue was analyzed by immunofluorescence using rabbit anti-FAM (green) together with rat anti-CD209 (red) and counterstained with DAPI. B, Thirty nmoles of FAM-UNO were injected intravenously in mice bearing 4T1 tumors, 10 days after orthotopic inoculation of 10^6 Cells. Peptide was let to circulate for two hours, mice were then sacked and tumor and tissues analyzed by immunofluorescence using rabbit Anti-FAM (green) together with rat anti-CD209 (red) and counterstained with DAPI (Blue). Images in A and B were taken using the same imaging conditions. Scale bar: 50 μm (images in B are at the same scale as in A). Representative images from n=3 mice.
Thirty nmoles of FAM-UNO were injected intravenously in healthy Balb/C female mice. Peptide was allowed to circulate for 2 hours. Mice were then sacrificed, and inguinal lymph node and kidney analyzed by immunofluorescence using rabbit anti-FAM together with rat anti-CD206 (red, 2901) and counterstained with DAPI (blue). FAM-UNO is absent from the healthy inguinal lymph node (left panel), while some CD206 is observed (2901). In the kidney (right panel), the FAM fluorescence signal is detected throughout the tissue. Scale bars: 100 μm. Representative images from n=3 mice.

[4] = test system: sentinel lymph node; assay: Ex vivo organ imaging after i.p. injection in 4T1 tumor-bearing mice; design: species or system mouse; details: 30 nmoles i.p., 2 h, signal normalized to tissue weight, ratio tissue/kidney
Method: A, FAM-UNO and FAM-LyP-1 were injected i.p. at doses of 30 nmoles in 4T1 tumor-bearing mice. Peptides were allowed to circulate for two h, mice were then sacrificed, and the organs were collected and imaged with the live imaging system MX3 Art Optix in the FITC channel with laser excitation. B, The signal in each organ was quantified, normalized to the tissue weight and the ratio tissue/kidney was graphed in bar graph. LyP-1 is a peptide that targets p32 protein on the surface of activated macrophages. Results from n=3 mice. Bars of panel B represent mean+SEM.

[5] = 4T1 tumor lysate, injected within 1 min
Method: High-performance liquid chromatography (Agilent 1200 series, USA)-mass spectrometry (SciexQ-Trap 4500, Canada) analysis was done using a C18 column (Kinetex 2.6 μm EVO C18 100×4.6 mm, Phenomenex, USA). Ionization was performed at 300° C. with declustering potential set 30 V. Chromatography gradient started with 2 min 5% acetonitrile in water, followed by linear increase to 95% acetonitrile in 10 min and finally 10 min isocratic flow of 95% acetonitrile in water. Both eluents, water and acetonitrile, contained 0.2% formic acid. Flow rate was 0.3 ml/min. Column temperature was maintained at 40° C. Autosampler temperature was set to 37° C. Retention times and m/z signals of FAM-UNO, were determined from 30 μM FAM-UNO solution in PBS. Tumor lysate was split into two aliquots of 200 μL in each. From one aliquot, 20 μL were injected and the LC-MS profile obtained. The second aliquot was mixed with 50 μL of 30 μM FAM-UNO in PBS and injected within 1 min to LC-MS and the LC-MS profile obtained.

FAM-UNO: FAM-labeled UNO peptide CSPGAKVRC (SEQ ID NO: 1); 5(6)-carboxyfluorescein with 6-aminohexanoic acid spacer at the N-terminus ({FAM-Ahx}-CSPGAKVRC; cysteine pairing not given here)
accumulation in tumor [1]: accumulated in the tumor areas containing MEMs | signal in normal brain parenchyma [1]: No signal | accumulation in MEMs / CD206+ cells [2]: accumulated in MEMs | homing to lymph nodes of healthy mice [3]: did not home to the lymph nodes of healthy Balb/C mice | recruitment to intestinal tissue (expresses CD209) of healthy mice [3]: not recruited to intestinal tissue of healthy mice | accumulation of FAM in the sentinel lymph node versus FAM-LyP-1 [4]: significantly higher accumulation of the FAM in the sentinel lymph node | fate of the disulfide bridge on incubation with tumor lysate [5]: the disulfide bridge was reduced to yield a linear peptide

Reference: patent US11571484B2, “Compositions that target tumor-associated macrophages and methods of use therefor” (Sanford Burnham Prebys Medical Discovery Institute, priority 2017, dated 2023)
